# According to paper PMC11125126, “Synthesis, Characterisation, and In Vitro Evaluation of Biocompatibility, Antibacterial and Antitumor Activity of Imidazolium Ionic Liquids” (Pharmaceutics, 2024):
# Read-outs that look alike come from different tables or passages of the source.
# Key:
# [1] = tested on: Escherichia coli; assay: MIC/MBC by broth dilution, pure ILs; assay type: cell-based; conditions: 24 h
# Source text: (§1) Within the Di3A (Dipartimento di Agricoltura, Alimentazione e Ambiente, University of Catania, Italy) microbial collection, two Gram-negative strains (Escherichia coli and Pseudomonas fluorescens) and one Gram-positive strain (Listeria monocytogenes) were studied in order to define the potential efficacy of ionic liquids in relation to the different structure of the bacterial cell wall.
# (§2) For the pure ILs, the minimal inhibitory concentration (MIC) and minimal bactericidal concentration (MBC) were determined in Nutrient Broth (NB, Oxoid, Basingstoke, UK) medium by broth dilution method, according to the Clinical and Laboratory Standards Institute (CLSI).
# (§3) All the bacterial strains were individually grown for 24 h at 35 or 27 °C for P. fluorescens, with shaking. After the incubation period, the cells were collected by centrifugation and re-suspended in sterile NB to obtain a stock culture of 10^9 CFU/mL.
# (§4) Tubes containing 5 mL of NB with decreasing concentrations of ILs (1000, 500, 250, 125, 50, 25, 12.5, 5 and 0 µg/mL) were inoculated with each bacterial stock culture at a final concentration of 10^6 CFU/mL.
# (§5) Tubes were incubated at 35 or 27 °C in an orbital shaker and evaluated for the viable count of E. coli, P. fluorescens, and L. monocytogenes after 24 h by spread-plating 100 µL of each suspension on Nutrient Agar (NA, Oxoid, Basingstoke, UK) incubated for 24–48 h at 35 or 27 °C.
# (§6) In this study, MIC and MBC are expressed in both µg/mL and µM to make the comparison with the literature data easy. Each experiment was performed in triplicate.
# [2] = tested on: HDF cells; assay: Direct cytotoxicity test of IL powders, Alamar blue assay; assay type: cell-based, human; conditions: 24 h of incubation
# Method: (§7) Cytotoxicity studies on IL powders were carried out using human dermal fibroblast (HDF) cells (Sigma-Aldrich) and a human breast cancer cell line (MCF7). In addition, ILs loaded in PVC polymer substrates were tested for their cytocompatibility and adhesion properties on the HDF. HDF cells were cultured in 75 cm^2 cell culture flask in Dulbecco’s Modified Eagle’s Medium (DMEM) supplemented with 20% Foetal Bovine Serum (FBS), 1% non-essential amino acid (NEAA), antibiotic solution (streptomycin 100 µg/mL and penicillin 100 U/mL, Sigma Aldrich) and 2 mM L-glutamine. MCF7 cells were grown in DMEM with 10% FBS and the same antibiotics as mentioned above. The cells were maintained in a culture at 37 °C, with 5% CO2 and 95% humidity to achieve a confluent layer. Control cells were cultured in a complete medium without any compounds in tissue culture plates. Before biological testing, the samples were sterilised using a UV light for 2 h.
# (§8) A direct cytotoxicity test was used to assess the in vitro cytotoxicity of IL powders. IL powders with different alkyl chains were dissolved in DMEM media to obtain solutions at various concentrations (0.5–1–5 and 10 µg/mL) to determine the best formulation.
# (§9) After 24 h of incubation of IL solutions (200 µL) with seeded cells under specific environmental conditions (T = 37 °C, HR = 95%, CO2 = 5%), cell viability was tested using the Alamar blue assay (AbD Serotec, Milan, Italy) following the manufacturer’s instructions.
# (§10) In summary, each well received a 200 µL aliquot of Alamar Blue^TM diluted 1:10 in phenol red-free medium and was incubated for 4 h at 37 °C, 5% CO2. Following this, 100 µL of the solution was transferred to a 96-well plate for colorimetric analysis. Wells with no cells were included to account for any background interference from the redox indicator. Optical density was immediately measured using a spectrophotometer (Victor X3, Perkin Elmer, Waltham, MA, USA) at 560 and 595 nm wavelengths. The results were presented as a percentage of cell viability compared to that of the control (cells grown on tissue culture plates).
# (§11) Here, the antitumor activity and cytotoxicity of the synthetised imidazolium-based ionic liquids have been determined for breast cancer cells (MCF-7) and healthy human fibroblast (HDF) cells. […] Table 5 reports the IC50 values in µg/mL and µM to make their comparison with the literature data easy.
# [3] = tested on: MCF7 cancer cells; assay: as above; assay type: cell-based, human; conditions: 24 h of incubation
# Method: as §7, §8, §9, §10, §11
# [4] = Thermogravimetric analysis (TGA), thermal stability; assay type: physicochemical; conditions: neat ILs; single-step degradation; 10 °C/min, nitrogen
# Method: Thermal stability and kinetic parameters of the synthesised ILs were investigated using the TA instruments Q500 thermogravimetric analyser (Milan, Italy). A certain amount of sample (4–5 mg) was placed in a platinum pan and heated at 10 °C min^−1 from 40 to 600 °C under a flow of nitrogen (60 mL/min).
# Thermogravimetric analyses were performed to evaluate the thermal stability of ILs and PVC/IL blends. Before testing, the samples were subjected to drying cycles in a vacuum stove for 24 h at 50–60 °C, according to the thermal features of ILs, mainly considering their melting points. The ILs C9mimBF4, C10mimBF4, C9mimDMSIP, and C10mimDMSIP, which are liquid at RT, were left to dry at 30 °C for 4–5 h. […] Considering this, the 40–600 °C degradation temperature range was adopted for the subsequent TGA analyses. […] Furthermore, platinum pans and nitrogen as purge gas were used, and the temperature at which 5% weight loss occurred was defined as Tonset, aiming to avoid the decomposition differences due to pan and gas types, as well as the uncertainty from the manual determination of the Tonset tangent point, respectively. Many features can influence the thermal stability of ILs, mainly the coordinating nature of the anion. Indeed, the highly coordinating halide anions (Cl, Br) display a thermal stability lower than that of poor coordinating anions (PF6). The type of cation core influences the thermal stability of ILs, with a decreasing temperature resistance in the following order: pyrrolidinium, imidazolium, pyridinium, and non-cyclic tetra-alkyl ammonium. The increasing alkyl chain length of the imidazolium cation and branching of the alkyl substituents induce a reduction in thermal stability. Furthermore, a decrease in thermal stability is determined by the presence of alkoxylated side chains in methylimidazolium, piperidinium, and pyrrolidinium cations.
# As the industrial production of end products usually involves processing methodologies during which undesirable degradation processes could affect materials’ performance, the thermal stability of neat PVC and PVC/IL film blends was analysed. As detailed for TGA analyses of pure ILs, the stability of the PVC/IL blends was determined at heating runs of 10 °C/min from 40 to 600 °C under a nitrogen atmosphere using a platinum pan. These things considered, the temperature at 5% weight loss was considered as Tonset.
# [5] = tested on: Listeria monocytogenes; assay: MIC/MBC by broth dilution, pure ILs; assay type: cell-based; conditions: 24 h
# Source text: as §1, §2, §3, §4, §5, §6
# [6] = tested on: Pseudomonas fluorescens; assay: MIC/MBC by broth dilution, pure ILs; assay type: cell-based; conditions: 24 h, NI = no inhibition at IL maximum concentration used (1000 µM), read-out: MIC
# Source text: as §1, §2
# All the bacterial strains were individually grown for 24 h at 35 or 27 °C for P. fluorescens, with shaking. After the incubation period, the cells were collected by centrifugation and re-suspended in sterile NB to obtain a stock culture of 10^9 CFU/mL. […]
# as §5, §6
# [7] = NI = no inhibition at IL maximum concentration used (1000 µM), read-out: MIC
SMILES,MIC ([1]; 10^6 CFU/mL) [µg/mL],"MIC [1, 7] [µM]",IC50 ([2]; n = 3) [µM],"IC50 HDF ([2]; n = 3, mean ± SD) [µg/mL]",IC50 MCF7 ([3]; n = 3) [µg/mL],"IC50 ([3]; n = 3, mean ± SD) [µM]","Td, maximum degradation temperature [4] [°C]","MIC ([1]; 10^6 CFU/mL, read-out: MIC) [µg/mL]","MIC ([5]; 10^6 CFU/mL, read-out: MIC) [µg/mL]","MIC [5, 7] [µM]",MIC [6] [µM],"IC50 ([2]; Homo sapiens, n = 3) [µM]","IC50 ([2]; Homo sapiens, n = 3, mean ± SD) [µg/mL]","IC50 ([3]; Homo sapiens, n = 3) [µg/mL]","IC50 ([3]; Homo sapiens, n = 3, mean ± SD) [µM]",MIC ([5]; 10^6 CFU/mL) [µg/mL]
CCCCCCCCC[n+]1ccn(C)c1.COC(=O)c1cc(C(=O)OC)cc(S(=O)(=O)[O-])c1 [C9mimDMSIP],482.59,1000,10.3,4.96 ± 0.05,> 24.13,> 50,389.7,–,–,–,–,–,–,–,–,–
CCCCCCCCCCCCCCCCCCCC[n+]1ccn(C)c1.F[B-](F)(F)F [C20mimBF4],–,> 1000,–,–,–,–,427.9,> 450,> 450,> 1000,> 1000,5.99,2.7 ± 0.19,3.47,7.71,–
"CCCCCCCCCCCCCCCCCCCCn1cc[n+](C)c1.COC(=O)c1cc(C(=O)OC)cc(S(=O)(=O)[O-])c1 [C20mimDMSIP, 1-eicosyl-3-methylimidazolium 1,3-dimethyl-5-sulfoisophthalate]",> 636.88,–,8.01,5.10 ± 0.02,4.71,7.39,412.2,–,–,–,–,–,–,–,–,> 636.88
